US20180015100A1, “COMBINATION PRODUCTS FOR THE TREATMENT OF BACTERIAL INFECTIONS AND METHODS OF PRODUCING OR DOSING OF SAME” (priority 2016, published 2018)
Values after ≈ are worked out from the molar mass of the structure shown. Blank lines part the entries; values can stand above or below the molecule they belong to.

Assays:
[1] = test system: Escherichia coli isolates with an ESBL-phenotype; assay: In vitro MIC90 of a panel of approved antibiotics, US surveillance program; type: cell-based; settings: for MIC90: Escherichia coli, E. coli (n = 124), ESBL-phenotype, read-out: MIC90
[2] = test system: 385 Escherichia coli and 126 Klebsiella pneumoniae isolates; assay: MIC, MIC50 and MIC90 by reference broth microdilution against 511 UTI/bloodstream isolates (USA and Europe 2014-2015); type: cell-based; settings: 511 isolates; for EUCAST % I: EUCAST 2016 criteria; for MIC90: read-out: MIC90
[3] = test system: beta-lactamase producing E. coli (CTX-M-55; CTX-M-15, TEM-OSBL); assay: microbe, parasite or virus in culture; type: cell-based; settings: Escherichia coli
[4] = test system: Klebsiella oxytoca isolates; assay: MIC of cephalosporins alone or with clavulanate/tazobactam; type: cell-based; settings: clavulanate 2:1, tazobactam 4 μg/mL
[5] = test system: Citrobacter freundii isolates; assay: as above; type: cell-based; settings: clavulanate 2:1, tazobactam 4 μg/mL
[6] = plasma; cited from earlier work
clinical = settings: human, in vivo, po, 125 mg
Description: The twice daily divided dose of study drug was administered approximately 12 hours apart. All subjects randomized to placebo received placebo oral capsules that were identical to study drug capsules and given according to the same dosing schedule and same quantity of capsules as subjects randomized to receive ceftibuten and clavulanate concurrently. All SDs, as well as the first daily dose of the MD period on […] were given while the subject was fasted. […] In addition, blood samples for assessment of trough (pre-dose) concentrations were collected on day 7, day 8, day 9, and alternate days thereafter through study day 17. […] Peak concentration (Cmax), time at which Cmax was observed (Tmax), area under the concentration-time curve to infinity (AUCinf), percent coefficient of variation (% CV), elimination half-life (T1/2), apparent total clearance of the drug from plasma after oral administration (CL/F), and apparent volume of distribution during terminal phase after non-intravenous administration (Vz/F) were determined. […] Similar to above, six subjects were randomized to receive active drug and two were randomized to receive placebo. […] Safety, tolerability and PK were assessed as described above.

[7] = test system: Escherichia coli isolates; assay: MIC of cephalosporins alone or with clavulanate/tazobactam; type: cell-based; settings: clavulanate 2:1, tazobactam 4 μg/mL
[8] = test system: Enterobacter aerogenes isolates; assay: as above; type: cell-based; settings: Klebsiella aerogenes, clavulanate 2:1, tazobactam 4 μg/mL
[9] = test system: Enterobacter cloacae isolates; assay: as above; type: cell-based; settings: clavulanate 2:1, tazobactam 4 μg/mL
[10] = test system: Klebsiella pneumoniae isolates; assay: as above; type: cell-based; settings: clavulanate 2:1, tazobactam 4 μg/mL

SMILES: C[C@H]1[C@H](NC(=O)/C(=N\OC(C)(C)C(=O)O)c2csc(N)n2)C(=O)N1S(=O)(=O)O [Aztreonam]
MIC50 [2]: > 16 µg/mL
EUCAST % I [2]: 13.9%
MIC90 [2]: > 16 µg/mL
MIC90 [1]: > 16 µg/mL

SMILES: CC(C)(O/N=C(\C(=O)N[C@@H]1C(=O)N2C(C(=O)[O-])=C(C[n+]3ccccc3)CS[C@H]12)c1csc(N)n1)C(=O)O [Ceftazidime]
MIC50 [2]: 16 µg/mL (≈ 29.3 µM)
EUCAST % I [2]: 16.2%
MIC90 [2]: > 32 µg/mL
MIC90 [1]: > 32 µg/mL

SMILES: CO/N=C(\C(=O)N[C@@H]1C(=O)N2C(C(=O)O)=C(CSc3nc(=O)c(=O)[nH]n3C)CS[C@H]12)c1csc(N)n1 [Ceftriaxone]
MIC50 [2]: > 8 µg/mL
EUCAST % I [2]: 1.2%
MIC90 [2]: > 8 µg/mL
MIC90 relative to CLSI/EUCAST breakpoint for susceptibility ([1]; E. coli isolates with ESBL-producing phenotype): above the breakpoint for susceptibility
MIC90 [1]: > 8 µg/mL

SMILES: O=C(O)[C@H]1/C(=C/CO)O[C@@H]2CC(=O)N21 [Clavulanate, clavulanic acid]
MIC [3]: > 32 µg/mL
MIC ([4]; AKOX1005 (SHV-2, TEM-1, DHA-1)): 32 µg/mL
MIC ([4]; AKOX1009 (CTX-M-15)): 32 µg/mL
MIC ([5]; ACFR1034 (CTX-M-15, TEM-OSBL)): 32 µg/mL
MIC ([5]; ACFR1035 (CTX-M-3, TEM-OSBL)): 32 µg/mL
Elimination half-life [6]: approximately 1 h
Tmax (clinical; Tmax): 60 min
half-life (clinical; T½): 46.5 min
MIC ([7]; AECO001 (no ESBL)): 32 µg/mL
MIC ([7]; AECO1078 (CTX-M-15)): 32 µg/mL
MIC ([7]; AECO1147 (CTX-M-15)): 32 µg/mL
MIC ([7]; AECO1157 (CTX-M-15, TEM-OSBL)): 32 µg/mL
MIC ([7]; AECO1159 (CTX-M-15)): 32 µg/mL
MIC ([7]; AECO1169 (CTX-M-1, TEM-OSBL)): 32 µg/mL
MIC ([7]; AECO1172 (CTX-M-14)): 32 µg/mL
MIC ([8]; AEAE1027 (CTX-M-14)): 32 µg/mL
MIC ([8]; AEAE1029 (CTX-M-15)): 32 µg/mL
MIC ([9]; AECL1065 (CTX-M-15)): 64 µg/mL
MIC ([9]; AECL1067 (CTX-M-3)): 64 µg/mL
MIC ([10]; AKPN1159 (SHV-12)): 32 µg/mL
MIC ([10]; AKPN1161 (SHV-7)): 16 µg/mL
MIC ([10]; AKPN1162 (CTX-M-15, SHV-12)): 32 µg/mL
MIC ([10]; AKPN1166 (CTX-M-14, SHV-12)): 32 µg/mL
MIC ([10]; AKPN1167 (SHV-2)): 16 µg/mL

Second part, led by results:

MIC90 [1]: 8 µg/mL (≈ 13.7 µM)
SMILES: NCC[C@H](O)C(=O)N[C@@H]1C[C@H](N)[C@@H](O[C@H]2O[C@H](CN)[C@@H](O)[C@H](O)[C@H]2O)[C@H](O)[C@H]1O[C@H]1O[C@H](CO)[C@@H](O)[C@H](N)[C@H]1O [Amikacin]

MIC90 [1]: ≤ 0.06 µg/mL
SMILES: C[C@@H](O)[C@H]1C(=O)N2C(C(=O)O)=C(S[C@@H]3CN[C@H](CNS(N)(=O)=O)C3)[C@H](C)[C@H]12 [Doripenem]

MIC50 [2]: ≤ 0.12 µg/mL
MIC90 [2]: 0.5 µg/mL (≈ 1.67 µM)
MIC90 [1]: 0.25 µg/mL (≈ 0.835 µM)
SMILES: C[C@@H](O)[C@H]1C(=O)N2C(C(=O)O)=C(SCCN=CN)C[C@H]12 [Imipenem]
EUCAST % I [2]: 2.7%

MIC90 [1]: > 4 µg/mL
SMILES: C[C@H]1COc2c(N3CCN(C)CC3)c(F)cc3c(=O)c(C(=O)O)cn1c23 [Levofloxacin]
